From article PMC10262914 (Bioorganic chemistry, 2022)
In brackets after ≈: the same amount, converted by molar mass. Read-outs that look alike come from different tables or passages of the source.

Assays:
[1] = test system: Mycobacterium tuberculosis H37Rv; test: Alamar blue metabolic readout assay; type: cell-based; details: for MIC: Mycobacterium tuberculosis, H37RV, read-out: 7H12 MIC
[2] = dog, microsomes
[3] = in vitro; details: monkey, microsomes, pH 7.4
[4] = human, microsomes
[5] = mouse, microsomes
[6] = in vitro; details: dog, microsomes, pH 7.4
[7] = test system: Mycobacterium tuberculosis H37Rv; test: Alamar blue metabolic readout assay; type: cell-based; details: for GAS MIC: M. tuberculosis H37Rv, GAS media; for MIC: Mycobacterium tuberculosis, H37RV, read-out: GAS MIC
[8] = test system: Mycobacterium tuberculosis H37Rv; test: Low oxygen recovery assay; type: cell-based; details: for MIC: Mycobacterium tuberculosis, H37RV, read-out: LORA MIC
[9] = in vitro; details: human, microsomes, pH 7.4
[10] = in vitro; details: rat, microsomes, pH 7.4
[11] = in vitro; details: mouse, microsomes, pH 7.4
[12] = rat, microsomes
[13] = test system: VERO cells (kidney epithelial cells); test: Toxicity against VERO cells; type: cell-based; details: Chlorocebus sabaeus, Vero, read-out: Vero IC50, toxicity against Vero cells
[14] = microsomes
[15] = Microsomal stability assay, mouse; details: mouse hepatic microsomes
[16] = Microsomal stability assay, marmoset; details: marmoset hepatic microsomes
[17] = Microsomal stability assay, human; details: human hepatic microsomes

## [2H]c1c(C([2H])([2H])[2H])c([2H])n2c(C(=O)NCc3ccc(C(F)(F)F)cc3)c(C)nc2c1[2H] [Compound 30, 2-Methyl-6-(methyl-d3)-N-(4-(trifluoromethyl)benzyl)imidazo [1,2-a]pyridine-5,7,8-d3-3-carboxamide]
[1]
  MIC: 3.8 ± 1.3 nM (≈ 1.34 ng/mL)
[2]
  CLint: 64 mL/min/g protein
[3]
  half-life at 2 μM: 12 min
[4]
  CLint: 26 ml/min/g protein
[5]
  CLint: 70 ml/min/g protein
[6]
  half-life at 2 μM: 22 min
[7]
  GAS MIC: 9.1 ± 5.8 nM
  MIC: 9.1 nM (≈ 3.22 ng/mL)
[8]
  MIC: > 10000 nM
[9]
  half-life at 2 μM: 53 min
[10]
  half-life at 2 μM: 50 min
[11]
  half-life at 2 μM: 20 min
[12]
  CLint: 28 mL/min/g protein
[13]
  IC50: > 50 µM
[14]
  CLint: 116 ml/min/g protein

## [2H]c1c(C)cn2c(C(=O)NCc3ccc(C(F)(F)F)cc3)c(C([2H])([2H])[2H])nc2c1[2H] [Compound 52, 6-Methyl-2-(methyl-d3)-N-(4-(trifluoromethyl)benzyl)imidazo [1,2-a]pyridine-7,8-d2-3-carboxamide]
[1]
  MIC: 3.9 ± 1.6 nM (≈ 1.37 ng/mL)
[3]
  half-life at 2 μM: 12 min
[4]
  CLint: 30 ml/min/g protein
[5]
  CLint: 87 ml/min/g protein
[7]
  MIC: 7.4 ± 2.8 nM (≈ 2.61 ng/mL)
[8]
  MIC: > 10000 nM
[9]
  half-life at 2 μM: 46 min
[11]
  half-life at 2 μM: 16 min
[13]
  IC50: > 50 µM
[14]
  CLint: 116 ml/min/g protein

## [2H]c1c(C([2H])([2H])[2H])cn2c(C(=O)NCc3ccc(C(F)(F)F)cc3)c(C([2H])([2H])[2H])nc2c1[2H] [Compound 55, 2,6-Bis(methyl-d3)-N-(4-(trifluoromethyl)benzyl)imidazo[1,2-a] pyridine-7,8-d2-3-carboxamide]
[1]
  MIC: 4.9 ± 1.3 nM (≈ 1.74 ng/mL)
[3]
  half-life at 2 μM: 14 min
[4]
  CLint: 38 ml/min/g protein
[5]
  CLint: 42 ml/min/g protein
[7]
  MIC: 9.6 ± 2.6 nM (≈ 3.41 ng/mL)
[8]
  MIC: > 10000 nM
[9]
  half-life at 2 μM: 36 min
[11]
  half-life at 2 μM: 33 min
[13]
  IC50: > 50 µM
[14]
  CLint: 98 ml/min/g protein

## [2H]c1c(C([2H])([2H])[2H])cn2c(C(=O)NC([2H])([2H])c3ccc(C(F)(F)F)cc3)c(C([2H])([2H])[2H])nc2c1[2H] [Compound 57, 2,6-Bis(Methyl-d3)-N-((4-(trifluoromethyl)phenyl)methyl-d2) imidazo[1,2-a]pyridine-7,8-d2-3-carboxamide]
[1]; M. tuberculosis H37Rv, 7H12 media
  7H12 MIC: 6.7 ± 0.9 nM
[15]
  CLint: 78 ml/min/g protein
[16]
  CLint: 60 ml/min/g protein
[16]; 2 μM compound, 0.5 mg/mL
  Half-life: 23 min
[7]
  GAS MIC: 5.7 ± 1.2 nM
[17]
  CLint: 32 ml/min/g protein
[17]; 2 μM compound, 0.5 mg/mL
  Half-life: 43 min
[8]; M. tuberculosis H37Rv, low oxygen "latent" conditions
  LORA MIC: >10,000 nM
